Source: ChEMBL document CHEMBL3507680, “University of Dundee, Gates Library screen for HepG2 cell viability”

Assay: Human HepG2 cell viability assay in 384 well format
Type: toxicity, cell-based
Design: dose 125 nL, time 70.5 hour; cytotoxicity at 70.5 h: concentration not given beside the values
Details: HepG2 cells, read-out: Inhibition

Row | Compound | cytotoxicity at 70.5 h [%]
1 | OC(CN1CCC(c2ccn[nH]2)CC1)c1cccc(C(F)(F)F)c1 (centres undefined) | -7.35
2 | O=C(c1cnc2c(cnn2C2CCCC2)c1)N1CCCSCC1 | -6.43
3 | O=C(c1ccc(-n2ccnc2)cc1)N1CCCC(n2ccnc2)C1 (centres undefined) | -6.23
4 | CCN(CC1CCCO1)C(=O)Nc1cc(C(N)=O)ccc1OC (centres undefined) | -5.25
5 | Cc1cnn(CC2CCCN2C(=O)c2ccccc2-n2cnnn2)c1 (centres undefined) | -4.97
6 | Cc1cccc(NC2CCN(C(=O)Nc3ccncc3)CC2)n1 | 24.2
7 | Fc1ccc(-c2cnc(CN3CCOC(Cn4cccn4)C3)o2)cc1 (centres undefined) | -5.15
8 | N#Cc1cccnc1N1CCCN(C(=O)CCc2nccs2)CC1 | -1.9
9 | Cn1ccc2c(C(=O)N3CCCC3c3noc(C4CC4)n3)cccc21 (centres undefined) | -1.84
10 | CCCc1noc2ncc(C(=O)N3CCCC3c3cnn(C)c3)cc12 (centres undefined) | -6.19
11 | CCc1nccn1CC1CCCN1S(=O)(=O)Cc1ccccc1 (centres undefined) | -10.3
12 | O=C(c1cccc2cn[nH]c12)N1CCCC1c1noc(C2CC2)n1 (centres undefined) | -2.84
13 | CC(C)(C)c1cnc(CN2CCCCC2Cn2cccn2)o1 (centres undefined) | 18.8
14 | CCc1c(C(=O)NC2CCS(=O)(=O)C2)cnn1-c1ccc(C)cc1 (centres undefined) | -6.41
15 | Cc1cc(CN2CCN(C(=O)NCc3cccs3)CC2)no1 | -4.63
16 | Cc1cccc(-n2ncc(C(=O)NCC3CCS(=O)(=O)C3)c2C)c1 (centres undefined) | 0.102
17 | CCCc1noc(CN2CCC(c3ccnn3CCO)CC2)n1 | -0.994
18 | N#Cc1ccccc1N1CCCN(C(=O)CCc2ccsc2)CC1 | 1.39
19 | Cc1cc(CN2CCN(C(=O)NCc3csc(C)n3)CC2)no1 | 17.1
20 | Cc1cnn(C2CCCN(C(=O)Cc3n[nH]c4ccccc34)C2)c1 (centres undefined) | 0.337
21 | Cc1nc(C2CCN(C(=O)c3cc(C4CC4)[nH]n3)CC2)no1 | -0.899

Row | Compound | cytotoxicity at 70.5 h [%]
22 | Fc1ccc(-c2nc(CN3CCCCC3Cn3cncn3)co2)cc1 (centres undefined) | -3.61
23 | O=c1[nH]c(CCN2CCCC2Cn2cncn2)nc2ccccc12 (centres undefined) | -9.5
24 | Cn1cc(C2CCCN2CCc2nc3ccccc3c(=O)[nH]2)cn1 (centres undefined) | -2.12
25 | Cc1nn(C)c(C)c1C1CCCN1C(=O)c1cnc2onc(C)c2c1 (centres undefined) | -7.3
26 | Cc1cnn(CC2CCCCN2C(=O)c2n[nH]c3ccccc23)c1 (centres undefined) | 16
27 | O=C(CCCc1nnc(-c2ccccc2)o1)N1CCC1 | -14.2
28 | Cc1nc(C2CCCN(C(=O)c3cc(C(C)(C)C)on3)C2)no1 (centres undefined) | -1.93
29 | Cc1cc(CN2CCN(C(=O)NCc3ccoc3)CC2)no1 | -1.05
30 | Cc1nc(C)n(CC2CCCN(CC(=O)NC3CCOCC3)C2)n1 (centres undefined) | 3.14
31 | CCN1CCC(NC(=O)CN2CCCC2Cn2nc(C)nc2C)CC1 (centres undefined) | 3.87
32 | CN(Cc1nc(-c2ccoc2)no1)C1CCCN(c2cccnn2)C1 (centres undefined) | 1.16
33 | CCn1cnnc1CNC(=O)N(C)C(C)c1cccs1 (centres undefined) | -0.961
34 | CN(CC(=O)NCc1cccnc1N1CCCCC1)C(=O)c1cccs1 | 0.0514
35 | Cn1cnnc1C1CCN(C(=O)CCCOc2ccccc2)CC1 | -0.661
36 | Cc1ccccc1OCCC(=O)N1CCC(c2nncn2C)CC1 | -0.859
37 | COc1cccc(S(=O)(=O)CCN2CCn3c(C)nnc3C2)c1 | 1.41
38 | Cc1ncc2c(n1)CN(CCCOc1ccc(C#N)cc1)CC2 | 3.97
39 | OC(CN1CCN(Cc2nc(C3CC3)no2)CC1)c1ccccc1 (centres undefined) | 2
40 | N#Cc1ccc(OCC(O)CN2CCc3cncnc3C2)cc1 (centres undefined) | 2.9
41 | Cc1nnc(CN2CCN(CC(O)c3ccccc3)CC2)o1 (centres undefined) | -1.4
42 | N#CCc1cccc(C(=O)N2CCN(CC(O)c3ccccc3)CC2)c1 (centres undefined) | 2.39

Row | Compound | cytotoxicity at 70.5 h [%]
43 | COc1ccc2cc(C(=O)N3CCCC3Cn3cc(C)cn3)[nH]c2c1 (centres undefined) | 2.37
44 | COc1ccc(OC)c(C(=O)N2CCCCC2Cn2cccn2)c1 (centres undefined) | -0.39
45 | CC(=O)Nc1nc(C(=O)N2CCCC2c2noc(C(C)C)n2)cs1 (centres undefined) | 1.7
46 | Cc1noc(C)c1CN1CCOC(CNc2cccnn2)C1 (centres undefined) | 23.1
47 | CCc1nc(CN2CCCN(C(=O)C(CC)OC)CC2)cs1 (centres undefined) | 6.03
48 | Cn1c(C2CC2)nc2c1CCN(CCOc1cccc(F)c1)C2 | 5.07
49 | Cc1cc(CN(C)C(=O)NC2CCN(Cc3ccccn3)CC2)no1 | 1.36
50 | CCc1nc(CN2CCCN(C(=O)CCCOC)CC2)cs1 | 2.4
51 | CN(Cc1cnn(C)c1)C(=O)C1CCCN1Cc1ccccn1 (centres undefined) | 26.2
52 | Cc1noc(CCCC(=O)NCC2CCS(=O)(=O)C2)n1 (centres undefined) | 1.41
53 | CCc1nc(CN2CCCN(C(=O)CCOC(C)C)CC2)cs1 | 0.154
54 | Cc1cc(CN2CCOC(CNc3cccnn3)C2)on1 (centres undefined) | -0.746
55 | Cc1cccc(-c2ccc(C(=O)NCC(C)(C)C(N)=O)c(=O)[nH]2)c1 | -18.8
56 | COc1ccc(Cl)cc1NCC(=O)NCCc1ccccn1 | 5.95
57 | CC(C)C(C(=O)N1CCC(N(C)c2cccnn2)CC1)n1cncn1 (centres undefined) | -12.6
58 | Cc1ccc(NC2CCN(C(=O)CC3CCCO3)CC2)nn1 (centres undefined) | -11.8
59 | CC(C(=O)N1CCC(Nc2cccnn2)CC1)n1ccnc1 (centres undefined) | -8.6
60 | Cc1nnc(CN2CCCC(c3cc(C(N)=O)[nH]n3)C2)o1 (centres undefined) | -15.2
61 | c1ccc(CNC2CCc3ncnn3C2)nc1 (centres undefined) | 6.6
62 | CC(NCc1c(C(C)C)nn(C)c1N1CCOCC1)C(N)=O (centres undefined) | 15.3
63 | CC(C)c1nn(C)c(N2CCOCC2)c1CNCC(=O)N(C)C | -6.07

Row | Compound | cytotoxicity at 70.5 h [%]
64 | CCN(CC)C(=O)C(c1ccccc1)N1CCn2c(C)nnc2C1 (centres undefined) | 2.24
65 | c1ccc(-n2ncc(CNC3CCc4ncnn4C3)n2)cc1 (centres undefined) | -10.4
66 | c1ccc(-c2cnc(CNC3CCCN(c4cccnn4)C3)o2)cc1 (centres undefined) | -4.5
67 | O=C(NCCOc1ccc2c(c1)CCC2)N1CCS(=O)(=O)CC1 | 23.8
68 | O=C(Cc1ccccc1Cl)N1CCCC(n2cncn2)C1 (centres undefined) | -7.27
69 | Cc1ccc2oc(C(=O)N3CCCC(n4nc(C)cc4C)C3)cc2n1 (centres undefined) | -2.12
70 | Cc1ccc(NC(=O)C2CSCN2C(=O)c2cc[nH]n2)c(C)c1 (centres undefined) | -2.12
71 | Cc1cc(CNc2cc(Cl)ccc2Cl)no1 | -14.1
72 | CC(C)NC(=O)C(c1ccccc1)N1CCn2c(nnc2C2CC2)C1 (centres undefined) | 2.95
73 | Cc1ccccc1OCCC(=O)N1CCCC(n2cncn2)C1 (centres undefined) | -6.17
74 | O=C(COc1ccc2c(c1)CCC2)NS(=O)(=O)c1cncc(Br)c1 | -2.54
75 | Cc1ccoc1-c1nnc(CN2CCCC(Cn3cncn3)C2)o1 (centres undefined) | -6.83
76 | CNC(=O)c1ccc(CN(C(=O)c2scnc2C)C2CC2)cc1 | 29.9
77 | CNC(=O)CCCNCc1c(C)nn(C)c1N(C)C | -1.74
78 | COc1ccc(-c2nc(CN3CCc4c(ncn4C)C3)cs2)cc1 | 21.3
79 | CCN(CC1CCOC1)C(=O)Nc1ccc(OC)nc1 (centres undefined) | 24.3
80 | CCOc1ccc(Cl)c(C(=O)N(C)C)n1 | -2.99
81 | Cc1ccc(CC(=O)N2CCc3nnc(N(C)C)cc3C2)cn1 | -3.16
82 | Cn1ccc(CN2CCCC2c2ccc3c(c2)OCCCO3)cc1=O (centres undefined) | -12.3
83 | COc1ccc(CC(=O)N2CCc3nnc(N(C)C)cc3C2)cc1F | -2.52
84 | CCC1c2ccsc2CCN1C(=O)NCCNc1ncccn1 (centres undefined) | 0.287
